Data reported in US7473669B2, “Substituted 4,5-dihydro-1,2,4-triazin-6-ones, 1,2,4-triazin-6-ones, and their use as fungicides” (priority 2005, dated 2009).
Where two headings read alike, the source gives them in different places.

What was measured:
[1] = tested on: Leptosphaeria nodorum; assay: Glume Blotch of Wheat greenhouse one-day protectant test; format: in vivo; settings: Parastagonospora nodorum, 24 h, read-out: LEPTNO percent control rating
[2] = tested on: Pyricularia oryzae; assay: whole plant or invertebrate; format: in vivo; settings: 24 h, read-out: PYRIOR percent control rating
[3] = tested on: Colletotricum lagenarium; assay: Cucumber Anthracnose greenhouse one-day protectant test; format: in vivo; settings: Cucumis sativus, 24 h, read-out: COLLLA percent control rating
[4] = tested on: Puccinia recondita tritici; assay: Leaf Rust of Wheat greenhouse one-day protectant test; format: in vivo; settings: 24 h, read-out: PUCCRT percent control rating
[5] = tested on: Erysiphe cichoracaerum; assay: Cucumber Powdery Mildew greenhouse one-day protectant test; format: in vivo; settings: 24 h, read-out: ERYSCI percent control rating
[6] = tested on: Phytophthora infestans; assay: whole plant or invertebrate; format: in vivo; settings: in Solanum lycopersicum, 24 h, read-out: PHYTIN percent control rating, tomato plants, one-day protectant test, 200 ppm application rate
[7] = wheat plants, one-day protectant test, 200 ppm application rate
[8] = cucumber plants, one-day protectant test, 200 ppm application rate

SMILES	pest or weed control at 200 ppm [1, 7] [%]	pest or weed control at 200 ppm [2] [%]	pest or weed control at 200 ppm [3, 8] [%]	pest or weed control at 200 ppm [4, 7] [%]	melting point [°C]	pest or weed control at 200 ppm [5, 8] [%]	pest or weed control at 200 ppm [6] [%]	pest or weed control at 200 ppm [1] [%]	pest or weed control at 200 ppm [3] [%]	pest or weed control at 200 ppm [4] [%]	pest or weed control at 200 ppm [5] [%]
O=C1C(SC2CCCCC2)NC(c2cccc(I)c2)=NN1CC(F)(F)F (centres unmarked) [Compound 49, 5-cyclohexylthio-3-(3-iodophenyl)-1-(2,2,2-trifluoroethyl)-4,5-1,2,4-dihydrotriazin-6(1H)-one]	80 to 100	80 to 100	80 to 100	80 to 100	172 to 173	0 to 49	0 to 49				
O=C1CNC(c2cc(-c3ccsc3)cc(-c3ccsc3)c2)=NN1CC(F)(F)F [Compound 61, 3-(3,5-dithien-3-ylphenyl)-1-(2,2,2-trifluoroethyl)-4,5-dihydro-1,2,4-triazin-6(1H)-one]	0 to 49	80 to 100	0 to 49	80 to 100	180 to 182	0 to 49	0 to 49				
O=C1CNC(c2cc(Br)cc(-c3ccsc3)c2)=NN1CC(F)(F)F [Compound 67, 3-(3-Bromo-5-thien-3-ylphenyl)-1-(2,2,2-trifluoroethyl)-4,5-dihydro-1,2,4-triazin-6(1H)-one]	80 to 100	80 to 100	80 to 100	80 to 100	167 to 169	0 to 49	0 to 49				
O=C1CNC(c2cccc(Cc3ccccc3)c2)=NN1CC(F)(F)F [Compound 73, 3-(3-benzylphenyl)-1-(2,2,2-trifluoroethyl)-4,5-dihydro-1,2,4-triazin-6(1H)-one]	80 to 100	80 to 100	0 to 49	80 to 100	104 to 106	0 to 49	0 to 49				
CON=C(c1ccccc1)c1cccc(C2=NN(CC(F)(F)F)C(=O)CN2)c1 [Compound 75, 3-{3-[(Z)-(Methoxyimino)phenyl)methyl]phenyl}-1-(2,2,2-trifluoroethyl)-4,5-dihydro-1,2,4-triazin-6(1H)-one]	80 to 100	80 to 100	0 to 49	80 to 100	119 to 123	0 to 49	0 to 49				
O=c1cnc(-c2cc(-c3ccsc3)cc(-c3ccsc3)c2)nn1CC(F)(F)F [Compound 80, 3-(3,5-dithien-3-ylphenyl)-1-(2,2,2-trifluoroethyl)-1,2,4-triazin-6(1H)-one]	0 to 49	80 to 100	0 to 49	50 to 79	189 to 191	0 to 49	0 to 49				
O=c1cnc(-c2cc(Br)cc(-c3ccsc3)c2)nn1CC(F)(F)F [Compound 84, 3-(3-Bromo-5-thien-3-ylphenyl)-1-(2,2,2-trifluoroethyl)-1,2,4-triazin-6(1H)-one]	80 to 100	80 to 100	50 to 79	0 to 49	180 to 182	0 to 49	0 to 49				
O=c1cnc(-c2cccc(/C=C\c3ccccc3)c2)nn1CC(F)(F)F [Compound 89]		80 to 100					0 to 49	80 to 100	50 to 79	80 to 100	0 to 49
O=c1cnc(-c2cccc(CC3=CCc4ccccc43)c2)nn1CC(F)(F)F [Compound 90]	50 to 79	80 to 100	0 to 49	50 to 79		0 to 49	0 to 49				
O=c1cnc(-c2cccc(Cc3ccccc3)c2)nn1CC(F)(F)F [Compound 91, 3-(3-Benzylphenyl)-1-(2,2,2-trifluoroethyl)-1,2,4-triazin-6(1H)-one]	80 to 100	80 to 100	80 to 100	80 to 100	95 to 96	80 to 100	0 to 49				
O=c1cnc(-c2cccc(C#Cc3ccccc3)c2)nn1CC(F)(F)F [Compound 92]	50 to 79	80 to 100	80 to 100	80 to 100		0 to 49	50 to 79				
CON=C(c1ccccc1)c1cccc(-c2ncc(=O)n(CC(F)(F)F)n2)c1 [Compound 94, 3-{3-[(Z)-(Methoxyimino)phenyl)methyl]phenyl}-1-(2,2,2-trifluoroethyl)-1,2,4-triazin-6(1H)-one]	80 to 100	80 to 100	0 to 49	80 to 100	127 to 129	0 to 49	0 to 49				
O=c1cnc(-c2cccc(C(=NOCc3ccccc3)c3ccccc3)c2)nn1CC(F)(F)F [Compound 95]	50 to 79	80 to 100	0 to 49	0 to 49	139 to 140	0 to 49	0 to 49				
C[Si](C)(C)C#CCn1nc(-c2ccc(F)c(Br)c2)ncc1=O [Compound 96, 3-(3-bromo-4-fluorophenyl)-1-(3-trimethylsilanyl-prop-2-ynyl)-1,2,4-triazin-6(1H)-one]	0 to 49	80 to 100	50 to 79	50 to 79	103 to 105	0 to 49	0 to 49				
O=c1cnc(-c2ccc(F)c(Br)c2)nn1Cc1ccc(Cl)nc1 [Compound 97, (3-bromo-4-fluoro-phenyl)-1-(6-chloro-pyridin-3-ylmethyl)-1H-[1,2,4]triazin-6-one]	80 to 100	80 to 100	50 to 79	80 to 100		0 to 49	0 to 49				
